Laboratory results reported in patent publication US20150225369A1, “DDR2 INHIBITORS FOR THE TREATMENT OF OSTEOARTHRITIS” (Merck Patent GmbH, priority 2012, published 2015).

What follows are compounds tested against T1, His-tagged human recombinant DDR-2 kinase domain (His-TEV-DDR2 467-855 aa) (Homo sapiens, UniProt Q16832) (assay: Autophosphorylation assay for biochemical activity testing of DDR2 (HTRF)). Details: 4 nM DDR2 kinase domain, 150 μM ATP, 150 min at 22° C.
T1 construct: His-TEV-DDR2 467-855 aa
T1 sequence (Q16832 467-855): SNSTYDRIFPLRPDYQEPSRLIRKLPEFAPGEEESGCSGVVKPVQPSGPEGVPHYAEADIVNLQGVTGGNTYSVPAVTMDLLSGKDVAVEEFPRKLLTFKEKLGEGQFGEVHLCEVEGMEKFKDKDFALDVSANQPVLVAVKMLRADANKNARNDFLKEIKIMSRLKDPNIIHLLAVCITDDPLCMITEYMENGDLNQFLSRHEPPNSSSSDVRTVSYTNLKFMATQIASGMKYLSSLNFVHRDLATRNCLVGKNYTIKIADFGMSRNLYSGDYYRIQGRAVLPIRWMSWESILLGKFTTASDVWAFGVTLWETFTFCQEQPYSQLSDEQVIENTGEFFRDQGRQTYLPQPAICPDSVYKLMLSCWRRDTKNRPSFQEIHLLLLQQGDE
Description: The autophosphorylation assay was run in two steps: the enzymatic reaction in which His-tagged DDR2 with ATP as co-substrate phosphorylates itself and the detection reaction where a time resolved FRET between XL665® labelled anti-6His antibody bound to the His-tag of the enzyme and cryptate labelled anti-phospho-Tyrosine-antibody (PT66) bound the phosphorylated Tyrosine residue of DDR2 was analysed. The autophosphorylation activity was detectable directly via the increase in HTRF signal.
The autophosphorylation assay was performed as 1536 well or 384 well HTRF® (Cisbio, Codolet, France) assay format in Greiner low volume medium binding 384-well microtiter plates and was used for high throughput screen. […] The ratio of the emission signals was determined. The full value used was the inhibitor-free reaction.

For CNC(=O)c1cc(Oc2ccc(COC(=O)Nc3cc(C(F)(F)F)cnc3O)cc2)ccn1 [compound 5], which IC50 is on record?
Its IC50 is 610 nM.

How did the IC50 turn out when Cn1cc(C(F)(F)F)cc(NC(=O)NCc2ccc(Oc3ccncc3C(F)(F)F)cc2)c1=O [compound 13] was run?
Its IC50 is 1600 nM.

Which IC50 does the source give for CNC(=O)c1cc(Oc2ccc(CNC(=O)Nc3cc(C)ccn3)cc2C)ccn1 [compound 15] here?
The IC50 was 400 nM.

For CNC(=O)c1cc(Oc2ccc(CNC(=O)Nc3ncc(C(F)(F)F)cc3Cl)cc2)ccn1 [compound 7], which IC50 is on record?
The IC50 was 6600 nM.

For CNC(=O)c1cc(Oc2ccc(CNC(=O)Nc3cc(C)ccn3)cc2)ccn1 [compound 14], which IC50 is on record?
The IC50 was 570 nM.

Same assay, conditions: Table 6; 4 nM DDR2 kinase domain, 150 μM ATP

How did the IC50 turn out when CNC(=O)c1cc(Oc2ccc(C(O)CC(=O)Nc3ccc(Cl)c(C(F)(F)F)c3)cc2C)ccn1 (centres unmarked) [compound 2] was run?
The IC50 was 21000 nM.

Same assay, conditions: biochemical DDR2 autophosphorylation

How did the IC50 turn out when CNC(=O)c1cc(Oc2ccc(CNC(=O)Nc3cc(C(F)(F)F)c(Cl)cc3OCC(=O)O)cc2)ccn1 [compound 98, (5-Chloro-2-{3-[4-(2-methylcarbamoyl-pyridin-4-yloxy)-benzyl]-ureido}-4-trifluoromethyl-phenoxy)-acetic acid] was run?
The IC50 was 3300 nM.

With O=C(NCc1ccc(Oc2ccncc2)cc1)Nc1ccc(Cl)cc1Cl [compound 5] as the compound, how does the IC50 read?
The IC50 was 1400 nM.

Which IC50 does the source give for CNC(=O)c1cc(Oc2ccc(CNC(=O)Nc3cc(C(F)(F)F)ccc3OCCN)cc2)ccn1 [compound 121, 4-(4-{3-[2-(2-Amino-ethoxy)-5-trifluoromethyl-phenyl]-ureidomethyl}-phenoxy)-pyridine-2-carboxylic acid methylamide] here?
The IC50 was 34 nM.

How did the IC50 turn out when O=C(NCc1ccc(Oc2ccncc2)cc1)Nc1cccc(Cl)c1Cl [compound 13] was run?
The IC50 was at least 100000 nM.

Which IC50 does the source give for CNC(=O)c1cc(Oc2ccc(CNC(=O)Nc3cc(C(F)(F)F)c(Cl)cc3OC)cc2)ccn1 [compound 67, 4-{4-[3-(4-Chloro-2-methoxy-5-trifluoromethyl-phenyl)-ureidomethyl]-phenoxy}-pyridine-2-carboxylic acid methylamide] here?
Its IC50 is 175 nM.

CNC(=O)c1cc(Oc2ccc(CNC(=O)Nc3cc(C)c(Cl)cc3OCCN(C)C(=O)OC(C)(C)C)cc2)ccn1 [compound 244, [2-(5-Chloro-4-methyl-2-{3-[4-(2-methylcarbamoyl-pyridin-4-yloxy)-benzyl]-ureido}-phenoxy)-ethyl]-methyl-carbamic acid tert-butyl ester] was tested. Which IC50 did it give?
The IC50 was 620 nM.

CCOc1ccc(NC(=O)NCc2ccc(Oc3ccncc3)cc2)cc1 [compound 41, 1-(4-Ethoxy-phenyl)-3-[4-(pyridin-4-yloxy)-benzyl]-urea] was tested. Which IC50 did it give?
Its IC50 is at least 100000 nM.

With CNC(=O)c1cc(Oc2ccc(CNC(=O)Nc3cc(OC)c([N+](=O)[O-])cc3OC)cc2)ccn1 [compound 81, 4-{4-[3-(2,5-Dimethoxy-4-nitro-phenyl)-ureidomethyl]-phenoxy}-pyridine-2-carboxylic acid methylamide] as the compound, how does the IC50 read?
Its IC50 is 230 nM.

How did the IC50 turn out when Cc1ccc(NC(=O)NCc2ccc(Oc3ccncc3)cc2)cc1C [compound 59, 1-(3,4-Dimethyl-phenyl)-3-[4-(pyridin-4-yloxy)-benzyl]-urea] was run?
Its IC50 is 2100 nM.

How did the IC50 turn out when O=C(NCc1ccc(Oc2ccncc2)cc1)Nc1ccc(Cl)cc1C(F)(F)F [compound 40, 1-(4-Chloro-2-trifluoromethyl-phenyl)-3-[4-(pyridin-4-yloxy)-benzyl]-urea] was run?
Its IC50 is 9900 nM.

For CNC(=O)c1cc(Oc2ccc(CNC(=O)Nc3cc(C(F)(F)F)c(Cl)cc3OCC(=O)OC(C)C)cc2)ccn1 [compound 114, (5-Chloro-2-{3-[4-(2-methylcarbamoyl-pyridin-4-yloxy)-benzyl]-ureido}-4-trifluoromethyl-phenoxy)-acetic acid isopropyl ester], which IC50 is on record?
Its IC50 is 24 nM.

How did the IC50 turn out when Cc1ccccc1NC(=O)NCc1ccc(Oc2ccncc2)cc1 [compound 29] was run?
The IC50 was at least 100000 nM.

COc1cc(Cl)c(C)cc1NC(=O)NCc1ccc(Oc2ccnc(C(=O)NCCCCCCN)c2)cc1 [compound 126, 4-{4-[3-(4-Chloro-2-methoxy-5-methyl-phenyl)-ureidomethyl]-phenoxy}-pyridine-2-carboxylic acid (6-amino-hexyl)-amide] was tested. Which IC50 did it give?
The IC50 was 150 nM.

How did the IC50 turn out when CNC(=O)c1cc(Oc2ccc(CNC(=O)Nc3cc(Cl)c(C)cc3OC)cc2C)ccn1 [compound 151, 4-{4-[3-(5-Chloro-2-methoxy-4-methyl-phenyl)-ureidomethyl]-2-methyl-phenoxy}-pyridine-2-carboxylic acid methylamide] was run?
The IC50 was 100 nM.

With Cc1cc(NC(=O)NCc2ccc(Oc3cc(N)ncn3)c(C)c2)c(OCCN(C)C)cc1Cl [compound 251, 1-[4-(6-Amino-pyrimidin-4-yloxy)-3-methyl-benzyl]-3-[4-chloro-2-(2-dimethylamino-ethoxy)-5-methyl-phenyl]-urea] as the compound, how does the IC50 read?
The IC50 was 440 nM.

How did the IC50 turn out when CCc1ccccc1NC(=O)NCc1ccc(Oc2ccncc2)cc1 [compound 28] was run?
The IC50 was at least 100000 nM.

For O=C(NCc1ccc(Oc2ccncc2)cc1)Nc1ccc(F)c(C(F)(F)F)c1 [compound 46, 1-(4-Fluoro-3-trifluoromethyl-phenyl)-3-[4-(pyridin-4-yloxy)-benzyl]-urea], which IC50 is on record?
The IC50 was 100 nM.

How did the IC50 turn out when CNC(=O)c1cc(Oc2ccc(CNC(=O)Nc3cc(C(F)(F)F)ccc3OCCOC)cc2)ccn1 [compound 166, 4-(4-{3-[2-(2-Methoxy-ethoxy)-5-trifluoromethyl-phenyl]-ureidomethyl}-phenoxy)-pyridine-2-carboxylic acid methylamide] was run?
The IC50 was 140 nM.

How did the IC50 turn out when CCc1ccc(NC(=O)NCc2ccc(Oc3ccncc3)cc2)cc1 [compound 52, 1-(4-Ethyl-phenyl)-3-[4-(pyridin-4-yloxy)-benzyl]-urea] was run?
Its IC50 is 9900 nM.

Which IC50 does the source give for Cc1cc(NC(=O)NCc2ccc(Oc3ccnc(N)c3)c(C)c2)c(OCCN(C)C)cc1Cl [compound 254, 1-[4-(2-Amino-pyridin-4-yloxy)-3-methyl-benzyl]-3-[4-chloro-2-(2-dimethylamino-ethoxy)-5-methyl-phenyl]-urea] here?
Its IC50 is 31 nM.

How did the IC50 turn out when O=C(NCc1ccc(Oc2ccncc2)cc1)Nc1cccc(Br)c1 [compound 53, 1-(3-Bromo-phenyl)-3-[4-(pyridin-4-yloxy)-benzyl]-urea] was run?
Its IC50 is 56 nM.

For CNC(=O)c1cc(Oc2ccc(CNC(=O)Nc3cc(C(F)(F)F)ccc3OCCN(C)C)cc2)ccn1 [compound 77, 4-(4-{3-[2-(2-Dimethylamino-ethoxy)-5-trifluoromethyl-phenyl]-ureidomethyl}-phenoxy)-pyridine-2-carboxylic acid methylamide], which IC50 is on record?
Its IC50 is 78 nM.

For CC(=O)Nc1cc(Oc2ccc(CNC(=O)Nc3cc(C)c(Cl)cc3OCCN(C)C)cc2C)ccn1 [compound 247, N-[4-(4-{3-[4-Chloro-2-(2-dimethylamino-ethoxy)-5-methyl-phenyl]-ureidomethyl}-2-methyl-phenoxy)-pyridin-2-yl]-acetamide], which IC50 is on record?
Its IC50 is 6 nM.

CNC(=O)c1cc(Oc2ccc(CNC(=O)Nc3ccccc3OCCCN(C)C)cc2)ccn1 [compound 86, 4-(4-{3-[2-(3-Dimethylamino-propoxy)-phenyl]-ureidomethyl}-phenoxy)-pyridine-2-carboxylic acid methylamide] was tested. Which IC50 did it give?
The IC50 was 1200 nM.

Which IC50 does the source give for Cc1cc(NC(=O)NCc2ccc(Oc3ccncc3)cc2)ccc1Br [compound 58, 1-(4-Bromo-3-methyl-phenyl)-3-[4-(pyridin-4-yloxy)-benzyl]-urea] here?
The IC50 was 4700 nM.

With CNC(=O)c1cc(Oc2ccc(CNC(=O)Nc3cc(C(F)(F)F)ccc3OCC(=O)O)cc2)ccn1 [compound 94, (2-{3-[4-(2-Methylcarbamoyl-pyridin-4-yloxy)-benzyl]-ureido}-4-trifluoromethyl-phenoxy)-acetic acid] as the compound, how does the IC50 read?
Its IC50 is 1600 nM.

For O=C(NCc1ccc(Oc2ccncc2)cc1)Nc1ccc(F)cc1 [compound 11], which IC50 is on record?
Its IC50 is 3400 nM.

CNC(=O)c1cc(Oc2ccc(CNC(=O)Nc3cc(C(F)(F)F)ccc3OCCN3CCCC3)cc2)ccn1 [compound 106, 4-(4-{3-[2-(2-Pyrrolidin-1-yl-ethoxy)-5-trifluoromethyl-phenyl]-ureidomethyl}-phenoxy)-pyridine-2-carboxylic acid methylamide] was tested. Which IC50 did it give?
The IC50 was 140 nM.

Which IC50 does the source give for CNC(=O)c1cc(Oc2ccc(CNC(=O)Nc3cc(C(F)(F)F)c(Cl)cc3OCC(=O)OC)cc2)ccn1 [compound 113, (5-Chloro-2-{3-[4-(2-methylcarbamoyl-pyridin-4-yloxy)-benzyl]-ureido}-4-trifluoromethyl-phenoxy)-acetic acid methyl ester] here?
Its IC50 is 57 nM.

How did the IC50 turn out when CCOc1ccc(C(F)(F)F)cc1NC(=O)NCc1ccc(Oc2ccnc(C(=O)NC)c2)c(C)c1 [compound 229, 4-{4-[3-(2-Ethoxy-5-trifluoromethyl-phenyl)-ureidomethyl]-2-methyl-phenoxy}-pyridine-2-carboxylic acid methylamide] was run?
Its IC50 is 84 nM.

How did the IC50 turn out when COc1cc(Cl)c(C)cc1NC(=O)NCc1ccc(Oc2ccnc(C(=O)NCCN)c2)cc1 [compound 123, 4-{4-[3-(4-Chloro-2-methoxy-5-methyl-phenyl)-ureidomethyl]-phenoxy}-pyridine-2-carboxylic acid (2-amino-ethyl)-amide] was run?
Its IC50 is 3100 nM.

With CCN(CC)CCOc1cc(Cl)c(C)cc1NC(=O)NCc1ccc(Oc2ccnc(C(=O)NC)c2)cc1 [compound 117, 4-(4-{3-[4-Chloro-2-(2-diethylamino-ethoxy)-5-methyl-phenyl]-ureidomethyl}-phenoxy)-pyridine-2-carboxylic acid methylamide] as the compound, how does the IC50 read?
Its IC50 is 425 nM.
